Source: EP4678629A1, “IONIZABLE LIPID MOLECULE, PREPARATION METHOD THEREFOR AND USE THEREOF” (Maxirna (Shanghai) Pharmaceutical Co., Ltd., priority 2023, dated 2024)

What was measured:
[1] = Size and polydispersity index (PDI) of the lipid nanoparticle by dynamic light scattering; format: physicochemical; conditions: LNP encapsulating eGFP mRNA, ionizable lipid/DOPE/cholesterol/DMG-PEG2000 50/10/48.25/1.25 mol%, N/P 12; for Particle size: in nm (unit assumed)
Method: (§1) The ionizable lipid compound and positive control 1 from Example I were dissolved in ethanol at a molar ratio of 50:10:48.25:1.25 with DOPE, cholesterol, and DMG-PEG2000 (all purchased from A.V.T (Shanghai) Pharmaceutical Co., Ltd.) to prepare an ethanol lipid solution. The enhanced green fluorescent protein (eGFP) mRNA was diluted in 20 mM citrate buffer (pH=6.1) to obtain an mRNA aqueous solution. By using a microfluidic device (Micro&Nano Biologics Co., Ltd., model: INano ™ L) mix ethanol lipid solution and mRNA aqueous solution in a volume ratio of 1:3 to prepare a lipid nanoparticle with a total lipid to mRNA N/P ratio of 12. The medium was replaced by ultrafiltration, ethanol was removed and volumed with DPBS. Finally, the lipid nanoparticle was filtered through a 0.2 µm sterile filter to obtain an LNP preparation encapsulating eGFP mRNA using ionizable lipid/DOPE/cholesterol/DMG-PEG2000 (50/10/48.25/1.25 mol%), with an mRNA content of 0.002 mg/ml-0.5 mg/mL.
(§2) Using Malvern Zetasizer Nano ZS (Malvern UK), the size and polydispersity index (PDI) of the lipid nanoparticle were determined by dynamic light scattering in 173° backscatter detection mode, and the encapsulation efficiency was measured by Ribogreen method.

[2] = Encapsulation efficiency of the lipid nanoparticle (eGFP mRNA) by Ribogreen method; format: physicochemical; conditions: LNP encapsulating eGFP mRNA, ionizable lipid/DOPE/cholesterol/DMG-PEG2000 50/10/48.25/1.25 mol%, N/P 12
Method: as §1, §2

[3] = In vitro transfection of cells with eGFP-mRNA lipid nanoparticle (LNP preparation), fluorescence imaging and flow cytometry; format: cell-based, mouse; conditions: mouse, dc2.4 cells, 200 ng of mRNA per well, after 24 hours; read-out: Cell viability, %
Text: (§3) This example used mouse bone marrow-derived dendritic cells DC2.4 (purchased from Millipore) as the validation cell line for a lipid nanoparticle transfection experiment. DC2.4 cells adhered to the wall for growth. All operational steps of cell culture strictly followed the prescribed procedures, using sterile reagents for aseptic operations under a sterile workbench. The main operational steps involved were as follows: • 1) Cell recovery: the preserved cell cryopreservation solution was removed from the -80 °C freezer and immediately placed in a 37 °C water bath for rapid and continuous shaking, allowing it to completely melt within one minute. Fresh culture medium was added to a 15 mL centrifuge tube in advance, and the cell fluid was added to the centrifuge tube in a biosafety cabinet. A centrifuge tube of the same mass was taken, placed symmetrically in the centrifuge, and centrifuged at low speed for 5 minutes at 1200 rpm. After centrifugation, the upper clear liquid was removed, and an appropriate amount of culture medium was slowly added along the tube wall. After the cells were gently blown and dispersed evenly, the cell suspension was drawn and added to the prepared culture bottle. The state and distribution of cells in the early stage of recovery were observed under a microscope. The culture bottle was incubated in a 5% CO2 incubator at 37 °C, and the recovery time was recorded. • 2) Cell passaging: Under a microscope, if the cell density in the field of view reached 80%-90%, cells could be passaged and cultured. Adherent cells required trypsin digestion. In order to avoid residual serum in the culture medium reducing trypsin activity, the original culture medium was removed, and DPBS solution was added to wash once. After suctioning out the DPBS solution, trypsin was added to degrade the protein at the intercellular junction, thereby separating the cells and facilitating further cultivation. The mixture was gently shaken well and placed into the incubator for digestion for 2-3 minutes. After digestion was complete, an appropriate amount of culture medium was immediately added to the original culture dish to terminate digestion. Finally, a pipette was used to carefully blow off the cells and blow them until they were evenly dispersed, and then the cells were inoculated and subcultured in a certain proportion according to experimental requirements.
(§4) Transfection of DC2.4 cells • 1) DC2.4 cell recovery: the frozen DC2.4 cells were taken out from the -80 °C refrigerator and immediately put into a 37 °C water bath for rapid thawing. After melting, they were added to the preheated culture medium, and centrifuged at 1200 rpm for 5 minutes. The supernatant was discarded, and an appropriate amount of DMEM medium containing 10% FBS was added to resuspend the recovered DC2.4 cells, which were placed in a 37 °C, 5% CO2 incubator for activation culture. • 2) According to experimental requirements, DC2.4 cells were transfected into 24 well plates one day in advance. By counting cells, the number and viability of cells were recorded, and a cell suspension with 2 × 10^5 cells per well were taken. Then, a certain volume of DMEM medium containing 10% FBS was added and mixed evenly, wherein 1 mL was added per well for subsequent transfection experiments. • 3) After 24 hours, the culture medium was gently aspirated with a pipette 30 minutes in advance, and each well was washed with 1 mL of DPBS and aspirated. […] The mixture was placed in a 37 °C, 5% CO2 incubator for activation cultivation. • 6) After 24 hours, cell viability (%), eGFP positivity rate (%), and mean fluorescence intensity data were obtained through cell fluorescence imaging and flow cytometry.

[4] = test system: DC2.4 cells; assay: as above; format: cell-based, mouse; conditions: for Positive rate, %: eGFP positivity rate; for Positive rate, % / Cell viability, %: DC2.4 cells, 200 ng of mRNA per well, after 24 hours; for Mean fluorescence intensity: eGFP-mRNA expression on DC2.4 after 24 hours, normalized based on Example 11
Text: as §3, §4

Compound | Particle size [1] | Encapsulation rate, % [2] [%] | PDI [1] | viability at 24 h [3] [%] | Positive rate, % [4] [%] | Cell viability, % ([4]; 1440 min) [%] | Cell viability, % [4] [%] | Mean fluorescence intensity [4]
CCCCCCCCCCCCCOC(=O)CN(CCO)CCCN(CC(=O)OCCCCCCCCCCCCC)CC(=O)OCCCCCCCCCCCCC [Example 76, Ditridecyl 2,2'-((3-((2-hydroxyethyl)(2-oxo-2-(tridecyloxy)ethyl)amino)propyl)azanediyl)diacetate] | 74.60 | 96.23 |  | 95 | 98.01 |  |  | 
CCCCCCCCCCCCOC(=O)CCCCCCCN(CCCCO)CCCN(CCCCCCCC(=O)OCCCCCCCCCCCC)CCCCCCCC(=O)OCCCCCCCCCCCC [Example 52, Didodecyl 8,8'-((3-((8-(dodecyloxy)-8-oxooctyl)(4-hydroxybutyl)amino)propyl)azanediyl)dioctanoate] | 69.63 | 99.18 | 0.17 | 82.9 | 85.37 |  |  | 
CCCCCCCCCCCCCOC(=O)CCCN(CCCO)CCCCN(CCCC(=O)OCCCCCCCCCCCCC)CCCC(=O)OCCCCCCCCCCCCC [Example 85, 4,4'-((4-((3-hydroxypropyl)(4-oxo-4-(tridecyloxy)butyl)amino)butyl)azetidinyl)dibutyric acid diester] |  | 93.32 | 0.10 |  | 96.2 | 95.9 |  | 
CCCCCCCCCCCOC(=O)CCCCCN(CCCCO)CCCN(CCCCCC(=O)OCCCCCCCCCCC)CCCCCC(=O)OCCCCCCCCCCC [Example 28, Diundecyl 6,6'-((3-((4-hydroxybutyl)(6-oxo-6-(undecyloxy)hexyl)amino)propyl)azanediyl)dihexanoate] |  | 99.47 | 0.17 | 92.9 | 97.51 |  |  | 
Tetratridecyl 8,8',8",8"-(((3-hydroxypropyl)azadiyl)di(propane-3,1-diyl))di(azanetriyl)tetraoctanoate [Example 99] |  | 69.17 | 0.26 |  | 77.44 |  | 93.2 | 0.49
CCCCC/C=C\C/C=C\CCCCCCCCOC(=O)CCCCCCCN(CCO)CCCN(CCCCCCCC(=O)OCCCCCCCC/C=C\C/C=C\CCCCC)CCCCCCCC(=O)OCCCCCCCC/C=C\C/C=C\CCCCC [Example 79] | 99.80 | 99.80 | 70.67 |  | 95.05 | 95.0 |  | 
CCCCCCCCCCCCOC(=O)CCCN(CCCO)CCCCN(CCCC(=O)OCCCCCCCCCCCC)CCCC(=O)OCCCCCCCCCCCC [Example 84] | 89.72 | 97.58 | 0.11 |  | 96.42 | 90.2 |  | 
CCCCCCCCCCCOC(=O)CCCCN(CCO)CCCN(CCCCC(=O)OCCCCCCCCCCC)CCCCC(=O)OCCCCCCCCCCC [Example 38, Diundecyl 5,5'-((3-((2-hydroxyethyl)(5-oxo-5-(undecyloxy)pentyl)amino)propyl)azadiyl)dipentanoate] | 65.19 | 99.04 | 0.10 |  | 90.28 | 94.1 |  | 

Further lines, with some results ahead:

Particle size [1] | Encapsulation rate, % [2] [%] | PDI [1] | Compound | viability at 24 h [3] [%] | Positive rate, % [4] [%] | Cell viability, % ([4]; 1440 min) [%] | Cell viability, % [4] [%] | Mean fluorescence intensity [4]
 | 67.68 | 0.34 | CC/C=C\COC(=O)CCCCCCCN(CCO)CCCN(CCCCCCCC(=O)OC/C=C\CC)CCCCCCCC(=O)OC/C=C\CC [Example 97] |  | 83.64 | 90.5 |  | 
 | 92.68 | 0.14 | CCCCCCCCCCCCCOC(=O)CCCN(CCCO)CCCCN(CCCC(=O)OCCCCCCCCCCCCC)CCCC(=O)OCCCCCCCCCCCCC [Example 101, 4,4'-ditridecyl((4-((3-hydroxypropyl)(4-oxo-4-(tridecyloxy)butyl)amino)butyl)azetidinyl)dibutanoate] | 93.4 | 94.85 |  |  | 
84.42 | 94.33 | 0.14 | CCCCCCCCCCCCCOC(=O)CCCCCCCN(CCO)CCCN(CCCCCCCC(=O)OCCCCCCCCCCCCC)CCCCCCCC(=O)OCCCCCCCCCCCCC [Example 90, Tridecyl 8-(29-hydroxy-15-oxo-23-(8-oxo-8-(tridecyloxy)octyl)-23,27-diaza-14-oxanonacosane-27-yl)octanoate] |  | 92.38 | 91.6 |  | 
 | 79.63 | 0.24 | CCCCCCCCCCCOC(=O)CCCCCCCCCN(CCO)CCCN(CCCCCCCCCC(=O)OCCCCCCCCCCC)CCCCCCCCCC(=O)OCCCCCCCCCCC [Example 91, Undecyl 10-(29-hydroxy-13-oxo-23-(10-oxo-10-(undecyl)oxydecyl)-23,27-diaza-12-oxanonacosane-27-yl)caprate] |  | 62.74 | 91.4 |  | 
89.25 | 93.34 | 0.13 | 8-((6Z,10Z,46Z,49Z)-30-(3-hydroxypropyl)-20,36-dioxo-26,30-diaza-19,37-dioxapentatriacontane-6,9,46,49-tetraen-26-yl)(7Z,10Z)-hexadec-7,10-dien-1-yl octanoate [Example 96] |  | 94.64 |  | 96.6 | 0.97
 | 66.08 | 0.24 | 4,4'-(3-(((2-hydroxyethyl)((E)-4-oxo-4-(undecyloxy)but-2-en-1-yl)amino)propyl)azadiyl)(2E,2'E)-di(but-2-enoic acid) [Example 105] |  | 78.32 |  | 95.8 | 0.39
94.58 | 93.93 | 0.12 | 4,4'-didecyl((4-(decyloxy)-4-oxobutyl)(3-hydroxypropyl)amino)butyl)azetidinyl)dibutanoate [Example 102] |  | 93.18 |  | 94.6 | 1.28
 | 76.22 | 0.28 | CCCCCC/C=C\COC(=O)CCCCCCCCCN(CCO)CCCN(CCCCCCCCCC(=O)OC/C=C\CCCCCC)CCCCCCCCCC(=O)OC/C=C\CCCCCC [Example 92, 10-((7Z)-27-hydroxy-21-(10-(((2Z)-non-2-enyl)oxy)-10-oxodecyl)-11-oxo-21,25-diaza-10-oxaheptacosane-7-en-25-yl)decanoic acid-(2Z)-non-2-en-1-yl ester] |  | 73.64 | 92.6 |  | 
